Measurements taken from patent US20200069691A1, “HETEROCYCLIC COMPOUNDS AS HIV PROTEASE INHIBITORS” (Merck Sharp & Dohme Corp., priority 2016, published 2020).

These molecules were tested against T1, wild-type HIV-1 protease (Human immunodeficiency virus type 1 group M subtype B, UniProt P04585) (assay: Assay for Inhibition of Microbial Expressed HIV Protease (peptide substrate cleavage, LC-MS/MS readout)). Conditions: E. coli expressed wild-type HIV-1 protease, mean of at least two independent experiments, read-out: HIV Pr Enzyme HIV1 PR IC50.
T1 construct: Escherichia coli expressed wild-type HIV-1 protease protein
Format: biochemical
Outline: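 E. coli-expressed wild-type HIV-1 protease ([…]) was preincubated with inhibitor 30 min at room temperature in pH 5.5 acetate buffer (100 mM NaCl, 0.1% BSA). Then 400 μM octapeptide substrate was added and reacted 1 h at 30 °C; inhibition came from LC-MS/MS product peak areas, mean of ≥2 experiments.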

COC(=O)Nc1ncc2c(n1)CN(C(=O)c1cccc(CN3C(=N)NC(CC(C)C)(c4ccccc4)C3=O)c1)C2 (stereo not drawn) [Compound 188, methyl {6-[(3-{[2-imino-4-(2-methylpropyl)-5-oxo-4-phenylimidazolidin-1-yl]methyl}phenyl)carbonyl]-6,7-dihydro-5H-pyrrolo[3,4-d]pyrimidin-2-yl}carbamate] and COC(=O)Nc1ncc2c(n1)CN(C(=O)c1cccc(CN3C(=N)NC(c4ccccc4)(c4ccccc4)C3=O)c1)C2 [Compound 190, methyl [6-({3-[(2-imino-5-oxo-4,4-diphenylimidazolidin-1-yl)methyl]phenyl}carbonyl)-6,7-dihydro-5H-pyrrolo[3,4-d]pyrimidin-2-yl]carbamate] are within 1.5-fold of each other in IC50: 3.78 nM for the first, 3.86 nM for the second.

First: COC(=O)Nc1ncc2c(n1)CN(C(=O)c1cccc(CN3C(=N)NC(c4ccc(F)cc4)(c4ccc(F)cc4)C3=O)c1)C2 [Compound 189, methyl {6-[(3-{[4,4-bis(4-fluorophenyl)-2-imino-5-oxoimidazolidin-1-yl]methyl}phenyl)carbonyl]-6,7-dihydro-5H-pyrrolo[3,4-d]pyrimidin-2-yl}carbamate]
Second: N=C1NC(c2ccc(F)cc2)(c2ccc(F)cc2)C(=O)N1Cc1cccc(C(=O)N2Cc3cccc(F)c3C2)c1 [Compound 196, 3-{3-[(4-fluoro-1,3-dihydro-2H-isoindol-2-yl)carbonyl]benzyl}-5,5-bis (4-fluorophenyl)-2-iminoimidazolidin-4-one]
The IC50 of the first is 8.3-fold lower: 3.83 nM for the first, 31.6 nM for the second. The first is the more potent here.

CC(C)CCC1(c2ccccc2)NC(=N)N(Cc2cccc(C(=O)N3Cc4cnc(C#N)nc4C3)c2)C1=O (stereo not drawn) [Compound 191, 6-[(3-{[2-imino-4-(3-methylbutyl)-5-oxo-4-phenylimidazolidin-1-yl]methyl}phenyl)carbonyl]-6,7-dihydro-5H-pyrrolo[3,4-d]pyrimidine-2-carbonitrile] and CC(C)CCC1(c2ccccc2)NC(=N)N(Cc2cccc(C(=O)N3Cc4nccnc4C3)c2)C1=O (stereo not drawn) [Compound 193, 3-[3-(5,7-dihydro-6H-pyrrolo[3,4-b]pyrazin-6-ylcarbonyl)benzyl]-2-imino-5-(3-methylbutyl)-5-phenylimidazolidin-4-one] are within 1.5-fold of each other in IC50: 4.17 nM for the first, 4.89 nM for the second.

Compared with N=C1NC(c2ccccc2)(c2ccc(-c3ccccc3)cc2)C(=O)N1Cc1cccc(C(=O)N2Cc3nccnc3C2)c1 (stereo not drawn) [Compound 192, 5-biphenyl-4-yl-3-[3-(5,7-dihydro-6H-pyrrolo[3,4-b]pyrazin-6-ylcarbonyl)benzyl]-2-imino-5-phenylimidazolidin-4-one], N#Cc1ncc2c(n1)CN(C(=O)c1cccc(CN3C(=N)NC(c4ccccc4)(c4ccccc4)C3=O)c1)C2 [Compound 199, 6-({3-[(2-imino-5-oxo-4,4-diphenylimidazolidin-1-yl)methyl]phenyl}carbonyl)-6,7-dihydro-5H-pyrrolo[3,4-d]pyrimidine-2-carbonitrile] is 7.9-fold lower in IC50: 44.2 nM for the first, 5.59 nM for the second. The second is the more potent here.

First: N=C1NC(c2ccccc2)(c2ccccc2)C(=O)N1Cc1cccc(C(=O)N2Cc3cccc(F)c3C2)c1 [Compound 194, 3-{3-[(4-fluoro-1,3-dihydro-2H-isoindol-2-yl)carbonyl]benzyl}-2-imino-5,5-diphenylimidazolidin-4-one]
Second: N=C1NC(c2ccc(F)cc2)(c2ccc(F)cc2)C(=O)N1Cc1cccc(C(=O)N2Cc3ccccc3C2)c1 [Compound 195, 3-[3-(1,3-dihydro-2H-isoindol-2-ylcarbonyl)benzyl]-5,5-bis(4-fluorophenyl)-2-iminoimidazolidin-4-one]
The IC50 of the first is 1.6-fold lower: 35.7 nM for the first, 56.9 nM for the second. The first is the more potent here.

N=C1NC(c2ccc(F)cc2)(c2ccc(F)cc2)C(=O)N1Cc1cccc(C(=O)N2Cc3cc(F)c(F)cc3C2)c1 [Compound 197, 3-{3-[(5,6-difluoro-l,3-dihydro-2H-isoindol-2-yl)carbonyl]benzyl}-5,5-bis(4-fluorophenyl)-2-iminoimidazolidin-4-one] and C[C@H](c1cccc(C(=O)N2Cc3cncnc3C2)c1)N1C(=N)NC(c2ccc(F)cc2)(c2ccc(F)cc2)C1=O [Compound 198, 3-{(1R)-1-[3-(5,7-dihydro-6H-pyrrolo[3,4-d]pyrimidin-6-ylcarbonyl)phenyl]ethyl}-5,5-bis(4-fluorophenyl)-2-iminoimidazolidin-4-one] are within 1.5-fold of each other in IC50: 5.25 nM for the first, 5.36 nM for the second.
